ChEMBL document CHEMBL1152696, “Interaction study of bioactive molecules with fibrinogen and human platelets determined by 1H NMR relaxation experiments” (Bioorg Med Chem, 2009)

Tests used:
[1] = Binding interaction with fibrinogen assessed as spin lattice relaxation rate enumerated as normalized affinity index at given concentration and fixed temperature by NMR relaxation experiment
[2] = test system: Platelet; assay: Binding interaction with platelet assessed as spin lattice relaxation rate enumerated as normalized affinity index at given concentration and fixed temperature by NMR relaxation experiment; format: cell-based

Row | [A]T,L [1] | Structure (SMILES) | [A]T,L (10'-8 /no of units.cm'3) [2]
1 | 9730 /mol.dm'3 | CC(C)NCC(O)c1ccc(O)c(O)c1 (centres undefined) | 4.47
2 | 26900 /mol.dm'3 | CNC[C@H](O)c1ccc(O)c(O)c1 | 4.66
